The source of these data is patent publication US20250368628A1, “METHODS AND COMPOUNDS FOR MODULATING INHERITED GENETIC DISEASES” (Design Therapeutics, Inc., priority 2022, published 2025).

The term EC50 denotes the concentration needed to bring the measured effect to its halfway point.

Where only a bound is given, the exact number is not on record here.

Test [1] concerns Myotonic Dystrophy 1 affected patient fibroblasts (Coriel GM04602; 1600 CTG repeats). In words: DM1 foci reduction assay (EC50 assay; CAG10-Cy3 FISH, foci per nucleus). Type of test: cell-based. Particulars: Homo sapiens, Fibroblast; DM1 patient fibroblasts, 48 h treatment, foci per nucleus; read-out: DM1 EC50, 48 h. In a few lines:
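Foci per nucleus counted by 20× imaging of 4 areas per well, after overnight FISH with 5 nM CAG10-Cy3 and DAPI staining of fixed, permeabilized cells. DM1 fibroblasts (GM04602, 1600 CTG) were dosed 48 h at 37 °C, 8 points, 3-fold dilutions, 3 μM top concentration.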

The test system of another test is F35T cells. In words: Foci reduction in FECD (CAG10-Cy3 FISH, foci per nucleus). Format: cell-based. Particulars: F35T cells, 48 h treatment, foci per nucleus; read-out: FECD EC50, 48 h. The method in brief:
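Foci per nucleus were counted by imaging after overnight CAG10-Cy3 FISH at 37 °C (30% formamide, 2×SSC) with DAPI counterstain, on PFA-fixed, ethanol-permeabilized F35T cells. The cells, seeded at 5000 per well in supplemented Opti-MEM, had received 8-point compound dilutions for 48 h at 37 °C.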

With `COCCOCCOCCOCCN(CCOCCOCCOCCOC)C(=O)CCNC(=O)c1nc(NC(=O)c2cc(NC(=O)CCNC(=O)c3nc(NC(=O)CCCNC(=O)c4cc(NC(=O)c5nc(NC(=O)CCNC(=O)c6cc(NC(C)c7nccn7C)cn6C)cn5C)cn4C)cn3C)cn2C)cn1C` (stereo not shown) [Compound B-79], the EC50 was 100 to 500 nM in test [1] and over 1000 nM in the test with F35T cells.

Turning to `CC(Nc1cc(C(=O)NCCC(=O)Nc2cn(C)c(C(=O)Nc3cc(C(=O)NCCCC(=O)Nc4cn(C)c(C(=O)NCCC(=O)Nc5cc(C(=O)Nc6cn(C)c(C(=O)NCCC(=O)NCCOCCOCCOCCOCCOCCOCCOCCOCCOCCOCCN)n6)n(C)c5)n4)n(C)c3)n2)n(C)c1)c1nccn1C` (stereo not shown) [Compound B-81], the half-maximal effective concentration (EC50) (in test [1]; in the test on F35T cells) was over 1000 nM throughout.

Regarding `CC(=O)NCCOCCOCCOCCOCCOCCOCCOCCOCCOCCOCCNC(=O)CCNC(=O)c1nc(NC(=O)c2cc(NC(=O)CCNC(=O)c3nc(NC(=O)CCCNC(=O)c4cc(NC(=O)c5nc(NC(=O)CCNC(=O)c6cc(NC(C)c7nccn7C)cn6C)cn5C)cn4C)cn3C)cn2C)cn1C` (stereo not shown) [Compound B-82], the EC50 (in test [1]; in the test on F35T cells) was 100 to 500 nM throughout.

In the case of `CCN(CC)CCCC[C@H](NC(=O)C(C)(C)C)C(=O)NCCOCCOCCOCCOCCOCCNC(=O)CCNC(=O)c1nc(NC(=O)c2cc(NC(=O)CCNC(=O)c3nc(NC(=O)CCCNC(=O)c4cc(NC(=O)c5nc(NC(=O)CCNC(=O)c6cc(NC(=O)c7nccn7C)cn6C)cn5C)cn4C)cn3C)cn2C)cn1C` [Compound B-90], the EC50 was 500 to 1000 nM in test [1] and over 1000 nM with F35T cells.

Regarding `CCN(CC)CCCC[C@H](NC(=O)c1ccc(C(C)(C)C)cc1)C(=O)NCCOCCOCCOCCOCCOCCNC(=O)CCNC(=O)c1nc(NC(=O)c2cc(NC(=O)CCNC(=O)c3nc(NC(=O)CCCNC(=O)c4cc(NC(=O)c5nc(NC(=O)CCNC(=O)c6cc(NC(=O)c7nccn7C)cn6C)cn5C)cn4C)cn3C)cn2C)cn1C` [Compound B-92], the concentration giving a half-maximal response (EC50) in test [1] fell in the range of 100 to 500 nM; in the test on F35T cells, 500 to 1000 nM.

`CCN(CC)CCCC[C@H](NC(=O)c1cccnc1)C(=O)NCCOCCOCCOCCOCCOCCNC(=O)CCNC(=O)c1nc(NC(=O)c2cc(NC(=O)CCNC(=O)c3nc(NC(=O)CCCNC(=O)c4cc(NC(=O)c5nc(NC(=O)CCNC(=O)c6cc(NC(=O)c7nccn7C)cn6C)cn5C)cn4C)cn3C)cn2C)cn1C` [Compound B-94]: the concentration for a half-maximal effect (EC50) fell in the range of 500 to 1000 nM in test [1] and 100 to 500 nM in the test on F35T cells.

For the compound `CCN(CC)CCCC[C@H](NC(=O)C1CCNCC1)C(=O)NCCOCCOCCOCCOCCOCCNC(=O)CCNC(=O)c1nc(NC(=O)c2cc(NC(=O)CCNC(=O)c3nc(NC(=O)CCCNC(=O)c4cc(NC(=O)c5nc(NC(=O)CCNC(=O)c6cc(NC(=O)c7nccn7C)cn6C)cn5C)cn4C)cn3C)cn2C)cn1C` [Compound B-95], the concentration giving a half-maximal response (EC50) in test [1] was 500 to 1000 nM; with F35T cells it was over 1000 nM.

Turning to `Cn1cc(NC(=O)c2nc(NC(=O)CCNC(=O)c3cc(NC(=O)c4nccn4C)cn3C)cn2C)cc1C(=O)NCCCC(=O)Nc1cn(C)c(C(=O)NCCC(=O)Nc2cc(C(=O)Nc3cn(C)c(C(=O)NCCCO)n3)n(C)c2)n1` [Compound B-105], the EC50 (in test [1]; with F35T cells) was 100 to 500 nM in each case.

Turning to `Cn1cc(NC(=O)c2nc(NC(=O)CCNC(=O)c3cc(NC(=O)c4nccn4C)cn3C)cn2C)cc1C(=O)NCCCC(=O)Nc1cn(C)c(C(=O)NCCC(=O)Nc2cc(C(=O)Nc3cn(C)c(C(=O)NCCOCCOCCOCCN4CCC(C#CC#CC5CCNCC5)CC4)n3)n(C)c2)n1` [Compound B-107], the EC50 (in test [1]; in the test on F35T cells) was 100 to 500 nM each time.

Turning to `CN(C)CCCNC(=O)c1nc(NC(=O)c2cc(NC(=O)CCNC(=O)c3nc(NC(=O)CCCNC(=O)c4cc(NC(=O)c5nc(NC(=O)CCNC(=O)c6cc(NC(=O)c7nccn7C)cn6C)cn5C)cn4C)cn3C)cn2C)cn1C` [Compound B-108], the concentration giving a half-maximal response (EC50) (in test [1]; with F35T cells) was 100 to 500 nM throughout.

With `CN(CCCNC(=O)c1cccc(C(=O)O)c1)CCCNC(=O)c1nc(NC(=O)c2cc(NC(=O)CCNC(=O)c3nc(NC(=O)CCCNC(=O)c4cc(NC(=O)c5nc(NC(=O)CCNC(=O)c6cc(NC(=O)c7nccn7C)cn6C)cn5C)cn4C)cn3C)cn2C)cn1C` [Compound B-109], the EC50 (in test [1]; in the test with F35T cells) was 100 to 500 nM each time.
